Measurements published in US20180087079A1, “METHODS OF USING CELL-CYCLE INHIBITORS TO MODULATE ONE OR MORE PROPERTIES OF A CELL CULTURE” (AMGEN INC., priority 2013, published 2018).

Tested on: transfected CHO cells expressing recombinant human monoclonal antibody (cell line 1)
Assay: 24-deep well culture, cell line 1: VCD, viability, titer, qP
Type: cell-based, Chinese hamster
Conditions: for Titer / VCD / Viability / qP: Cell Line 1
Procedure: Transfected CHO cells expressing a recombinant human monoclonal antibody (mAb) are cultured in 24-deep well plates with seeding density at 1×10^7/mL for five days. At certain time periods, samples of the cultures are taken and evaluated for viable cell density (VCD; expressed in 10^6 cells/mL); percent viability (as determined by trypan blue exclusion); titer of recombinant protein (expressed in grams of protein per liter of culture, or g/L, as determined by Protein A affinity HPLC); qP, or specific productivity (expressed in picograms of recombinant protein per cell per day, or pg/c/d), the presence or absence of high molecular weight substances (usually an indicator of protein aggregation; expressed as % of the total protein); and the relative percentage of Mannose 5, a major intermediate glyco-form that attaches to N297 of the mAb. N-linked glycosylation has an impact on the tertiary structure of the antibody and may affect Fc mediated antibody effector functions. The majority of the human Fc glycans are complex biantennary structures with galactose as the prevalent terminal sugar. Immature glyco-forms, such as high-mannose glycol-forms (Man5-9), are of concern due to potential higher plasma clearance rate (as compared to the clearance rate of complex glycan linked mAbs).
Compounds are further evaluated essentially as described in Example 2 herein. Briefly, transfected CHO cells expressing recombinant human monoclonal antibody (mAb; two different cell lines expressing two different mAb, referred to as cell line 1 and cell line 2) are cultured in 24-deep well plates in the presence or absence of the compounds. At specified time points, samples of the cultures are taken and evaluated for viable cell density (VCD; expressed in 10^6 cells/mL); percent viability (as determined by any method known in the art); titer of recombinant protein (expressed in grams of protein per liter of culture, or g/L, as determined by Protein A affinity HPLC); qP, or specific productivity (expressed in picograms of recombinant protein per cell per day, or pg/c/d). Additional parameters measure include the presence or absence of high molecular weight substances (usually an indicator of protein aggregation; expressed as % of the total protein); and the relative percentage of Mannose 5. For comparison purposes, Compounds A and B, which had been previously tested, were tested again.

OC1CCN(c2ccc(Nc3ncc4c5ccncc5n(C5CCCC5)c4n3)nn2)C1 (stereo not drawn) [Compound G, 1-(6-((9-cyclopentyl-9H-pyrido[4′,3′:4,5]pyrrolo[2,3-d]pyrimidin-2-yl)amino)pyridazin-3-yl)pyrrolidin-3-ol]
Titer (5 microM, D 1): 0.48 g/L | VCD (5 microM, D 1): 11.74 e6/mL | Viability (5 microM, D 1): 95.55% | qP (5 microM, D 1): 40.59 pg/c/d | Titer (5 microM, D 2): 0.66 g/L | VCD (5 microM, D 2): 10.58 e6/mL | Viability (5 microM, D 2): 88.10% | qP (5 microM, D 2): 62.69 pg/c/d | Titer (5 microM, D 3): 0.96 g/L | VCD (5 microM, D 3): 11.02 e6/mL | Viability (5 microM, D 3): 83.82% | qP (5 microM, D 3): 86.81 pg/c/d | Titer (5 microM, D 4): 0.98 g/L | VCD (5 microM, D 4): 13.45 e6/mL | Viability (5 microM, D 4): 82.62% | qP (5 microM, D 4): 72.60 pg/c/d | Titer (10 microM, D 1): 0.47 g/L | VCD (10 microM, D 1): 11.65 e6/mL | Viability (10 microM, D 1): 95.31% | qP (10 microM, D 1): 40.64 pg/c/d | Titer (10 microM, D 2): 0.80 g/L | VCD (10 microM, D 2): 9.95 e6/mL | Viability (10 microM, D 2): 85.90% | qP (10 microM, D 2): 80.10 pg/c/d | Titer (10 microM, D 3): 0.94 g/L | VCD (10 microM, D 3): 10.48 e6/mL | Viability (10 microM, D 3): 81.90% | qP (10 microM, D 3): 89.39 pg/c/d | Titer (10 microM, D 4): 1.08 g/L | VCD (10 microM, D 4): 13.58 e6/mL | Viability (10 microM, D 4): 79.61% | qP (10 microM, D 4): 79.79 pg/c/d | effect on viability (summary of Table 2): minimal effects on viability | growth arrest (summary of Table 2): reasonably sustained growth arrest

CN(C)C1CCN(c2ccc(Nc3ncc4c(n3)C3(C=CC(C)(C)CC3)c3cnccc3-4)nn2)CC1 (stereo not drawn) [Compound H, N-(6-(4-(dimethylamino)piperidin-1-yl)pyridazin-3-yl)-4,4-dimethylspiro[cyclohex[2]ene-1,9′-pyrido[4′,3′:3,4]cyclopenta[1,2-d]pyrimidin]-2′-amine]
Titer (10 microM, D 1): 0.47 g/L | VCD (10 microM, D 1): 11.48 e6/mL | Viability (10 microM, D 1): 95.80% | qP (10 microM, D 1): 41.24 pg/c/d | Titer (10 microM, D 2): 0.69 g/L | VCD (10 microM, D 2): 12.58 e6/mL | Viability (10 microM, D 2): 89.83% | qP (10 microM, D 2): 55.12 pg/c/d | Titer (10 microM, D 3): 0.94 g/L | VCD (10 microM, D 3): 13.36 e6/mL | Viability (10 microM, D 3): 87.77% | qP (10 microM, D 3): 70.60 pg/c/d | Titer (10 microM, D 4): 0.92 g/L | VCD (10 microM, D 4): 16.49 e6/mL | Viability (10 microM, D 4): 86.93% | qP (10 microM, D 4): 56.01 pg/c/d | Titer (20 microM, D 1): 0.47 g/L | VCD (20 microM, D 1): 10.69 e6/mL | Viability (20 microM, D 1): 95.60% | qP (20 microM, D 1): 44.27 pg/c/d | Titer (20 microM, D 2): 0.68 g/L | VCD (20 microM, D 2): 11.08 e6/mL | Viability (20 microM, D 2): 87.70% | qP (20 microM, D 2): 61.66 pg/c/d | Titer (20 microM, D 3): 0.92 g/L | VCD (20 microM, D 3): 10.91 e6/mL | Viability (20 microM, D 3): 82.95% | qP (20 microM, D 3): 83.98 pg/c/d | Titer (20 microM, D 4): 0.97 g/L | VCD (20 microM, D 4): 12.99 e6/mL | Viability (20 microM, D 4): 81.36% | qP (20 microM, D 4): 74.65 pg/c/d
